Values after ≈ are worked out from the molar mass of the structure shown. Active and inactive are the calls of the source. The calls are words filed in the database; no cut-off is given here.
How the values were obtained:
[1] = test system: Streptococcus viridans; assay: Antibacterial activity against Streptococcus viridans clinical isolate assessed as susceptibility level by broth microdilution method; type: functional
[2] = test system: Streptococcus constellatus; assay: Antibacterial activity against Streptococcus constellatus clinical isolate assessed as susceptibility level by broth microdilution method; type: functional
[3] = test system: Streptococcus oralis; assay: Antibacterial activity against Streptococcus oralis clinical isolate assessed as susceptibility level by broth microdilution method; type: functional
[4] = test system: Streptococcus intermedius; assay: Antibacterial activity against Streptococcus intermedius clinical isolate assessed as susceptibility level by broth microdilution method; type: functional
[5] = test system: Streptococcus mitis; assay: Antibacterial activity against Streptococcus mitis clinical isolate assessed as susceptibility level by broth microdilution method; type: functional
[6] = test system: Streptococcus agalactiae; assay: Antibacterial activity against Streptococcus agalactiae group B clinical isolate assessed as susceptibility level by broth microdilution method; type: functional
[7] = test system: Streptococcus pyogenes; assay: Antibacterial activity against Streptococcus pyogenes group A clinical isolate assessed as susceptibility level by broth microdilution method; type: functional
[8] = test system: Streptococcus pneumoniae; assay: Antibacterial activity against penicillin intermediate Streptococcus pneumoniae clinical isolate assessed as susceptibility level by broth microdilution method; type: functional
[9] = test system: Streptococcus viridans; assay: Antibacterial activity against Streptococcus viridans clinical isolate by broth microdilution method; type: functional
[10] = test system: Streptococcus constellatus; assay: Antibacterial activity against Streptococcus constellatus clinical isolate by broth microdilution method; type: functional
[11] = test system: Streptococcus oralis; assay: Antibacterial activity against Streptococcus oralis clinical isolate by broth microdilution method; type: functional
[12] = test system: Streptococcus intermedius; assay: Antibacterial activity against Streptococcus intermedius clinical isolate by broth microdilution method; type: functional
[13] = test system: Streptococcus mitis; assay: Antibacterial activity against Streptococcus mitis clinical isolate by broth microdilution method; type: functional
[14] = test system: Streptococcus agalactiae; assay: Antibacterial activity against Streptococcus agalactiae group B clinical isolate by broth microdilution method; type: functional
[15] = test system: Streptococcus pyogenes; assay: Antibacterial activity against Streptococcus pyogenes group A clinical isolate by broth microdilution method; type: functional
[16] = test system: Streptococcus pneumoniae; assay: Antibacterial activity against multidrug-resistant Streptococcus pneumoniae clinical isolate by broth microdilution method; type: functional
[17] = test system: Streptococcus pneumoniae; assay: Antibacterial activity against penicillin resistant Streptococcus pneumoniae clinical isolate by broth microdilution method; type: functional
[18] = test system: Streptococcus pneumoniae; assay: Antibacterial activity against penicillin intermediate Streptococcus pneumoniae clinical isolate by broth microdilution method; type: functional
[19] = test system: Streptococcus pneumoniae; assay: Antibacterial activity against multidrug-resistant Streptococcus pneumoniae clinical isolate assessed as susceptibility level by broth microdilution method; type: functional
[20] = test system: Streptococcus pneumoniae; assay: Antibacterial activity against penicillin resistant Streptococcus pneumoniae clinical isolate assessed as susceptibility level by broth microdilution method; type: functional
[21] = test system: Enterococcus faecalis

SMILES | Activity [8] [%] | MIC [9] [µg/mL] | MIC50 [9] | MIC90 [9] | MIC [10] [µg/mL] | MIC50 [10] | MIC90 [10] | MIC [11] [µg/mL] | MIC50 [11] | MIC90 [11] | MIC [12] [µg/mL] | MIC50 [12] | MIC90 [12] | MIC [13] [µg/mL] | MIC50 [13] | MIC90 [13] | MIC50 [14] [µg/mL] | MIC90 [14] [µg/mL] | MIC50 [15] [µg/mL] | MIC90 [15] [µg/mL] | other results
CC1(C)S[C@@H]2[C@H](NC(=O)Cc3ccccc3)C(=O)N2[C@H]1C(=O)O [PENICILLIN G] | 0 | ≤ 0.06 | inactive | inactive | ≤ 0.06 | inactive | inactive | ≤ 0.06 | inactive | inactive | ≤ 0.06 | inactive | inactive | ≤ 0.06 | inactive | inactive | ≤ 0.06 | ≤ 0.06 | ≤ 0.06 | ≤ 0.06 | Activity [1]: 62%; Activity [2]: 62%; Activity [3]: 62%; Activity [4]: 62%; Activity [5]: 62%; Activity [6]: 96%; Activity [7]: 93%; MIC [14]: ≤ 0.06 µg/mL; MIC [15]: ≤ 0.06 µg/mL; MIC50 [16]: 2 µg/mL (≈ 5.98 µM); MIC90 [16]: > 2 µg/mL; MIC [17]: 2 µg/mL (≈ 5.98 µM); MIC50 [17]: 2 µg/mL (≈ 5.98 µM); MIC90 [17]: > 2 µg/mL; MIC50 [18]: 1 µg/mL (≈ 2.99 µM); MIC90 [18]: 1 µg/mL (≈ 2.99 µM)
C[C@H]1COc2c(N3CCN(C)CC3)c(F)cc3c(=O)c(C(=O)O)cn1c23.C[C@H]1COc2c(N3CCN(C)CC3)c(F)cc3c(=O)c(C(=O)O)cn1c23.O [LEVOFLOXACIN] | 92 | ≤ 0.12 | inactive | inactive | ≤ 0.12 | inactive | inactive | ≤ 0.12 | inactive | inactive | ≤ 0.12 | inactive | inactive | ≤ 0.12 | inactive | inactive | 0.5 | 1 | 0.5 | 1 | Activity [1]: 100%; Activity [2]: 100%; Activity [3]: 100%; Activity [4]: 100%; Activity [5]: 100%; Activity [6]: 99%; Activity [7]: 98%; Activity [19]: 95%; Activity [20]: 97%; MIC50 [16]: 0.5 µg/mL; MIC90 [16]: 1 µg/mL; MIC50 [17]: 0.5 µg/mL; MIC90 [17]: 1 µg/mL; MIC50 [18]: 0.5 µg/mL; MIC90 [18]: 1 µg/mL
CO/N=C(\C(=O)N[C@@H]1C(=O)N2C(C(=O)O)=C(COC(N)=O)CS[C@H]12)c1ccco1 [CEFUROXIME] | 17 | ≤ 0.12 | inactive | inactive | ≤ 0.12 | inactive | inactive | ≤ 0.12 | inactive | inactive | ≤ 0.12 | inactive | inactive | ≤ 0.12 | inactive | inactive | ≤ 0.12 | ≤ 0.12 | ≤ 0.12 | 0.25 (≈ 0.589 µM) | Activity [19]: 2%; Activity [20]: 2%; MIC [14]: ≤ 0.12 µg/mL; MIC [15]: ≤ 0.12 µg/mL; MIC50 [16]: > 4 µg/mL; MIC90 [16]: > 4 µg/mL; MIC50 [17]: > 4 µg/mL; MIC90 [17]: > 4 µg/mL; MIC50 [18]: 2 µg/mL (≈ 4.71 µM); MIC90 [18]: 4 µg/mL (≈ 9.43 µM)
CO/N=C(\C(=O)N[C@@H]1C(=O)N2C(C(=O)O)=C(CSc3nc(=O)c(O)nn3C)CS[C@H]12)c1csc(N)n1 [CEFTRIAXONE] | 92 | 0.03 (≈ 0.0541 µM) | inactive | inactive | 0.03 (≈ 0.0541 µM) | inactive | inactive | 0.03 (≈ 0.0541 µM) | inactive | inactive | 0.03 (≈ 0.0541 µM) | inactive | inactive | 0.03 (≈ 0.0541 µM) | inactive | inactive | 0.06 (≈ 0.108 µM) | 0.06 (≈ 0.108 µM) | ≤ 0.015 | 0.12 (≈ 0.216 µM) | Activity [1]: 75%; Activity [2]: 75%; Activity [3]: 75%; Activity [4]: 75%; Activity [5]: 75%; Activity [6]: 96%; Activity [7]: 92%; Activity [19]: 77%; Activity [20]: 73%; MIC [15]: ≤ 0.015 µg/mL; MIC50 [16]: 1 µg/mL (≈ 1.8 µM); MIC90 [16]: 2 µg/mL (≈ 3.61 µM); MIC50 [17]: 1 µg/mL (≈ 1.8 µM); MIC90 [17]: 2 µg/mL (≈ 3.61 µM); MIC50 [18]: 0.5 µg/mL (≈ 0.902 µM); MIC90 [18]: 1 µg/mL (≈ 1.8 µM)
CCC[C@@H]1C[C@@H](C(=O)N[C@@H]([C@H]2O[C@H](SC)[C@H](O)[C@@H](O)[C@H]2O)[C@H](C)Cl)N(C)C1 [CLINDAMYCIN] | 83 | ≤ 0.03 | inactive | inactive | ≤ 0.03 | inactive | inactive | ≤ 0.03 | inactive | inactive | ≤ 0.03 | inactive | inactive | ≤ 0.03 | inactive | inactive | 0.06 (≈ 0.141 µM) | > 0.25 | ≤ 0.03 | 0.06 (≈ 0.141 µM) | Activity [1]: 88%; Activity [2]: 88%; Activity [3]: 88%; Activity [4]: 88%; Activity [5]: 88%; Activity [6]: 86%; Activity [7]: 98%; Activity [19]: 73%; Activity [20]: 76%; MIC [15]: ≤ 0.03 µg/mL; MIC50 [16]: 0.06 µg/mL (≈ 0.141 µM); MIC90 [16]: > 0.25 µg/mL; MIC50 [17]: 0.06 µg/mL (≈ 0.141 µM); MIC90 [17]: > 0.25 µg/mL; MIC [18]: 0.06 µg/mL (≈ 0.141 µM); MIC50 [18]: 0.06 µg/mL (≈ 0.141 µM); MIC90 [18]: 0.5 µg/mL (≈ 1.18 µM)
CN(C)[C@@H]1C(O)=C(C(N)=O)C(=O)[C@@]2(O)C(O)=C3C(=O)c4c(O)cccc4[C@@](C)(O)[C@H]3C[C@@H]12 [TETRACYCLINE] | 67 | 0.12 (≈ 0.27 µM) | inactive | inactive | 0.12 (≈ 0.27 µM) | inactive | inactive | 0.12 (≈ 0.27 µM) | inactive | inactive | 0.12 (≈ 0.27 µM) | inactive | inactive | 0.12 (≈ 0.27 µM) | inactive | inactive | > 8 | > 8 | 0.12 (≈ 0.27 µM) | 4 (≈ 9 µM) | Activity [1]: 75%; Activity [2]: 75%; Activity [3]: 75%; Activity [4]: 75%; Activity [5]: 75%; Activity [6]: 16%; Activity [7]: 89%; Activity [19]: 37%; Activity [20]: 41%; MIC50 [16]: > 8 µg/mL; MIC50 [17]: > 8 µg/mL; MIC50 [18]: 0.12 µg/mL (≈ 0.27 µM); MIC90 [18]: > 8 µg/mL
O=C(O)c1cn(C2CC2)c2cc(N3CCNCC3)c(F)cc2c1=O | – | – | – | – | – | – | – | – | – | – | – | – | – | – | – | – | – | – | – | – | MIC50 [21]: inactive; MIC90 [21]: inactive

From ChEMBL document CHEMBL1275440, “In vitro activity of telavancin against resistant gram-positive bacteria” (2008)
